# Reference: publication PMC9176062, “Phase Ib study of combinations of avadomide (CC‐122), CC‐223, CC‐292, and rituximab in patients with relapsed/refractory diffuse large B‐cell lymphoma” (EJHaem, 2022)
# Columns and labels:
# DOHH2 cells = test: DOHH2 xenograft model; type: in vivo; conditions: DLBCL xenograft model (DOHH2, SCID mice); avadomide oral once daily, rituximab 1 mg/kg once weekly
# Procedure: Female severe combined immunodeficiency (SCID) mice (CB17/Icr-Prkdcscid, Charles River) were 8 weeks old, with body weights ranging from 15.0 g to 23.2 g on day 1 of these studies. Each SCID mouse was injected subcutaneously in the right flank with 5 × 10^6 DOHH2 cells (0.2-mL cell suspension). Tumors were calipered in 2 dimensions to monitor growth as their mean volume approached 100 to 150 mm^3. Fourteen days after tumor cell implantation, mice were sorted into treatment groups of 10 mice per group. Tumors were calipered twice weekly during the study. Avadomide was suspended in 0.5% carboxymethyl cellulose (0.25% Tween-80 in deionized water). Vehicle control and avadomide were each administered via oral gavage once daily; rituximab (1 mg/kg) was administered once weekly for the duration of the study.
# FIGURE S1 Change in the percentage of apoptotic cells over time (A) and in vivo tumor growth response after combination treatment with avadomide and rituximab (B). Natural killer cell activity against DOHH or RL FL cell lines determined by flow cytometry is shown (A). Female CB17 severe combined immunodeficiency mice implanted subcutaneously with DOHH2 cells were administered vehicle and avadomide once daily and rituximab given 1 mg/kg once weekly (B). SEM, standard error of the mean; TGI, tumor growth inhibition. mm^3
# patients with R/R DLBCL = test: Treatment duration, modification, and exposure; type: in vivo; conditions: human, in vivo
# Procedure: CC‐122 hydrochloride, referred to here as CC‐122, as an active pharmaceutical ingredient in capsule (AIC) formulation, was administered orally once daily (QD). An alternate intermittent schedule of CC‐122 QD for five of every seven consecutive days (5/7), which improved tolerability and reduced the frequency and severity of neutropenia in a study of CC‐122 monotherapy in DLBCL, was also explored. CC‐292 was administered orally twice daily (BID) and CC‐223 was administered orally QD. Rituximab was administered on day 8 of cycle 1, day 1 of cycles 2–6, and day 1 of every third cycle thereafter. Patients in arm A received CC‐122 and CC‐223 with or without rituximab (starting at CC‐122 2 mg QD and CC‐223 20 mg QD), patients in arm B received CC‐122 plus CC‐292 with or without rituximab (starting at CC‐122 2 mg QD and CC‐292 500 mg BID), patients in arm C were treated with CC‐223 and CC‐292 (starting at CC‐223 20 mg QD and CC‐292 500 mg BID), and those in arm D received CC‐122 plus rituximab (starting at CC‐122 2 mg QD). In arm D, a CC‐122 3 mg formulated capsule was introduced with the same strength as CC‐122 3 mg AIC. Each dose level was cleared before the next was started. If unacceptable toxicity occurred at the initial dose level, dose reductions for CC‐122 (1.5 mg QD and 1 mg QD) and CC‐223 (15 mg QD) were allowed; no starting dose reductions for CC‐292 were planned. For arm A, the Safety Review Committee (SRC) determined which of the two drugs in the doublet to reduce. For arms B and D, the CC‐122 dose was reduced and for arm C, the CC‐223 dose was reduced. Assignment of patients to study arms was at the discretion of the investigator and based on slot availability per the study design.
# Patients who experienced dose‐limiting toxicity (DLT) after receiving ≥1 dose of study treatment or those who received ≥80% of planned doses of CC‐122, CC‐223, CC‐292, and rituximab during cycle 1 without experiencing a DLT were considered DLT‐evaluable. If zero out of ≥3 or ≤1 out of six evaluable patients in a cohort experienced a DLT during cycle 1 in parallel dose cohorts, then dose escalation could occur. DLTs are defined in the Supplementary Materials; individual investigators performed response assessments and determined DLTs. The NTD was defined as the dose level at which ≥2 of six evaluable patients in a cohort experienced a DLT during cycle 1. […] During cycle 1, any adverse event (AE) that led to dose reduction was considered a DLT. Patients could resume CC‐122 at a reduced dose only if they recovered to grade ≤1 within 14 days of dose interruption; two dose reductions were allowed before the patient was withdrawn from the study. Dose reductions were permitted for CC‐122, CC‐223, and CC‐292; no dose reductions were allowed for rituximab, but treatment could be discontinued at the discretion of the investigator. […] For arms A, B, and D, CC‐122 dosing was modified to the intermittent 5/7‐day schedule based on SRC review and escalated until the MTD/RP2D was established. Treatment was given until disease progression, unacceptable toxicity, or patient/physician decision to withdraw consent.
# ^aTreatment duration defined as date of last derived dose – date of first dose + 1.
# ^bDefined as the ratio of actual dose received to planned dose over the treatment period.
# DOHH2 and RL cells = test: Antibody-dependent, cell-mediated cytotoxicity (NK cells vs tumor cells, flow cytometry); type: cell-based; conditions: two DLBCL cell lines; NK cells pretreated with avadomide 1–100 nM, rituximab 1 μg/mL
# Procedure: Purified natural killer (NK) cells from patient peripheral blood mononuclear cell samples were treated with 10 ng/mL rh-IL-2 (R&D) alone or with avadomide (1–100 nM) for 24 hours at 37°C. Cells (1 × 10^6 cells/mL) from 2 FL cell lines, DOHH2 and RL, were stained with CellTrace carboxyfluorescein succinimidyl ester (CFSE; Thermo Fisher Scientific) (200 nmol/L) for 5 minutes at room temperature, then treated with dimethyl sulfoxide (DMSO; vehicle) or rituximab (1 μg/mL) for 1 hour prior to coculture. Target tumor DOHH2 and RL cells (2 × 10^4 cells) were added to DMSO or avadomide pretreated effector NK cells at a 1:5 ratio (target to effector cells) and were incubated for 4 hours at 37°C. Cells were stained with Annexin V-PE and TO-PRO-3 (Thermo Fisher Scientific) according to the manufacturer’s instructions. The percentage of tumor apoptosis was determined by sequential gating for CFSE-positive and double-positive (Annexin V-PE and TO-PRO-3–positive) cells.
# FIGURE S1 Change in the percentage of apoptotic cells over time (A) and in vivo tumor growth response after combination treatment with avadomide and rituximab (B). Natural killer cell activity against DOHH or RL FL cell lines determined by flow cytometry is shown (A). […]
# Aiolos = test: Blood pharmacodynamic biomarker Aiolos in CD3+ T cells and CD19+ B cells; type: in vivo, human; conditions: arm B (with CC‐292), 3 h post‐dose; for median decline in Aiolos levels: 1 mg of CC‐122; for decline in Aiolos levels: 2‐mg CC‐122 group
# Procedure: AEs were assessed according to the National Cancer Institute Common Terminology Criteria for AEs, version 4.03, up to 28 days after the last treatment. Blood samples for PK analysis were collected on days 15 to 28, predose, and at 1.5 and 3 h post‐dose on days 1 and 15 of cycle 1 for all dose cohorts. Additional blood samples were collected on day 15 from patients in dose level 2 of arm C to examine CC‐223 and CC‐292 steady‐state PK. Pharmacodynamic biomarkers of each novel agent were explored at baseline and cycle 1, day 1 (pre‐dose, and at 1.5 and 3 h) and cycle 1, day 15 (pre‐dose, and at 1.5 and 3 h), including cereblon modulation substrates in B and T cells in patients treated with CC‐122 and mTOR signaling pathway biomarkers (e.g., p4EBP1 and pAKT) in patients treated with CC‐223. Tumor assessments were performed at screening and at the end of even‐numbered cycles through cycle 6, then every three cycles through cycle 12, and every 6 months thereafter. Responses were assessed by the investigator per International Working Group 2007 criteria.
# Safety analyses were performed on all patients who received ≥1 dose of study treatment (safety population). The PK population comprised all patients who took ≥1 dose of study treatment and had ≥1 measured drug concentration. […] The biomarker‐evaluable population comprised all patients who took ≥1 dose of study treatment and had ≥1 pharmacodynamic assessment. Safety and efficacy analyses were based on the safety population except where noted (PK and biomarkers). PK parameters were calculated using actual times relative to the most recent administration. The median duration of response (DOR) and median PFS were calculated per the Kaplan‐Meier method.
# Per cent change from baseline in Aiolos in CD3+ T cells (A) and CD19+ B cells (B) and in p4EBP1 (C) and pAKT (D) at 3 h post‐dose on day 1 of cycle 1 (biomarker‐evaluable population). The change in Aiolos expression in CD3+ T cells and CD19+ B cells was calculated within each avadomide‐ and CC‐223‐containing arm. *p ≤ 0.05 versus baseline; **p ≤ 0.01 versus baseline; ***p ≤ 0.001 versus baseline; DL, dose level; MEFL, molecules of equivalent fluorescence label; NS, not significant
smiles,measurement,setting,value
"Cc1nc2cccc(N)c2c(=O)n1C1CCC(=O)NC1=O (stereo not drawn) [CC‐122, Avadomide]",tumor growth inhibition (TGI),DOHH2 cells,28%
same,patients with dose reductions of the drug,patients with R/R DLBCL,20.5%
same,≥1 dose interruption,patients with R/R DLBCL,59 (67.0) n (%)
same,≥1 dose interruption: Adverse event,patients with R/R DLBCL,49 (55.7) n (%)
same,≥1 dose interruption: Other,patients with R/R DLBCL,35 (39.8) n (%)
same,≥1 dose interruption: Per protocol,patients with R/R DLBCL,6 (6.8) n (%)
same,≥1 dose reduction,patients with R/R DLBCL,18 (20.5) n (%)
same,≥1 dose reduction: Adverse event,patients with R/R DLBCL,11 (12.5) n (%)
same,≥1 dose reduction: Other,patients with R/R DLBCL,5 (5.7) n (%)
same,≥1 dose reduction: Per protocol,patients with R/R DLBCL,1 (1.1) n (%)
same,rituximab‐mediated antibody‐dependent cell‐mediated cytotoxicity,DOHH2 and RL cells,enhancement
same,median decline in Aiolos levels,Aiolos; CD3+ T cells,approximately 20%
same,decline in Aiolos levels,Aiolos; CD3+ T cells,approximately 40%
same,median decline in Aiolos levels,Aiolos; CD19+ B cells,~5%
same,decline in Aiolos levels,Aiolos; CD19+ B cells,~32%
